# Test results published in ChEMBL document CHEMBL3603807, “Discovery of 2-arylamino-4-(1-methyl-3-isopropylsulfonyl-4-pyrazol-amino)pyrimidines as potent anaplastic lymphoma kinase (ALK) inhibitors” (Bioorg Med Chem Lett, 2015).
# pIC50: −log10 of the molar value.
# How the values were obtained:
# [1] = molecular target: ALK tyrosine kinase receptor (Homo sapiens, UniProt Q9UM73); assay: Inhibition of wild type human recombinant ALK using TK substrate-biotin incubated for 30 mins by HTRF assay
# [2] = molecular target: ALK tyrosine kinase receptor (Homo sapiens, UniProt Q9UM73, L1196M); assay: Inhibition of ALK L1196M mutant (unknown origin) using TK substrate-biotin incubated for 30 mins by HTRF assay
# [3] = Antiproliferative activity against human KARPAS299 cells assessed as inhibition of cell proliferation incubated for 96 hrs by cell-titer-Glo assay; type: functional, cell-based; conditions: KARPAS-299, 96 h
# NCI-H2228 = assay: Antiproliferative activity against human NCI-H2228 cells assessed as inhibition of cell proliferation incubated for 96 hrs by cell-titer-Glo assay; type: functional, cell-based; conditions: NCI-H2228, 96 h
# [4] = Clearance in rat; type: ADME, organism-based; conditions: in vivo
# Mus musculus = assay: Toxicity in human NCI-H2228 cells xenografted Balb/c mouse EML4-ALK NSCLC model assessed as induction of body weight loss at 30 mg/kg, po qd for 2 weeks; type: organism-based; conditions: in vivo, 336 h
# [5] = Half life in Sprague-Dawley rat at 1 mg/kg, iv by LC-MS/MS method; type: ADME, organism-based; conditions: in vivo
# [6] = AUC (0 to infinity) in Sprague-Dawley rat at 1 mg/kg, iv by LC-MS/MS method; type: ADME, organism-based; parameters: dose 1 mg/kg, route intravenous, time infinity; conditions: in vivo
# [7] = Volume of distribution in Sprague-Dawley rat at 1 mg/kg, iv by LC-MS/MS method; type: ADME, organism-based; conditions: in vivo
# [8] = Clearance in Sprague-Dawley rat at 1 mg/kg, iv by LC-MS/MS method; type: ADME, organism-based; conditions: in vivo
# [9] = Cmax in Sprague-Dawley rat at 5 mg/kg, po by LC-MS/MS method; type: ADME, organism-based; parameters: dose 5 mg/kg, route oral; conditions: in vivo
# [10] = Tmax in Sprague-Dawley rat at 5 mg/kg, po by LC-MS/MS method; type: ADME, organism-based; conditions: in vivo
# [11] = AUC (0 to infinity) in Sprague-Dawley rat at 5 mg/kg, po by LC-MS/MS method; type: ADME, organism-based; parameters: dose 5 mg/kg, time infinity, route oral; conditions: in vivo
# [12] = Oral bioavailability in Sprague-Dawley rat at 5 mg/kg by LC-MS/MS method; type: ADME, organism-based; conditions: in vivo
# [13] = Half life in beagle dog at 1 mg/kg, iv by LC-MS/MS method; type: ADME, organism-based, Canis lupus familiaris; conditions: in vivo
# [14] = AUC (0 to infinity) in beagle dog at 1 mg/kg, iv by LC-MS/MS method; type: ADME, organism-based, Canis lupus familiaris; parameters: dose 1 mg/kg, route intravenous, time infinity; conditions: in vivo
# [15] = Volume of distribution in beagle dog at 1 mg/kg, iv by LC-MS/MS method; type: ADME, organism-based, Canis lupus familiaris; conditions: in vivo
# [16] = Clearance in beagle dog at 1 mg/kg, iv by LC-MS/MS method; type: ADME, organism-based, Canis lupus familiaris; conditions: in vivo
# [17] = Cmax in beagle dog at 3 mg/kg, po by LC-MS/MS method; type: ADME, organism-based, Canis lupus familiaris; parameters: dose 3 mg/kg, route oral; conditions: in vivo
# [18] = Tmax in beagle dog at 3 mg/kg, po by LC-MS/MS method; type: ADME, organism-based, Canis lupus familiaris; conditions: in vivo
# [19] = AUC (0 to infinity) in beagle dog at 3 mg/kg, po by LC-MS/MS method; type: ADME, organism-based, Canis lupus familiaris; parameters: dose 3 mg/kg, route oral, time infinity; conditions: in vivo
# [20] = Oral bioavailability in beagle dog at 3 mg/kg by LC-MS/MS method; type: ADME, organism-based, Canis lupus familiaris; conditions: in vivo
# ALK tyrosine kinase receptor (Homo sapiens, UniProt Q9UM73), sequence (Q9UM73 whole entry): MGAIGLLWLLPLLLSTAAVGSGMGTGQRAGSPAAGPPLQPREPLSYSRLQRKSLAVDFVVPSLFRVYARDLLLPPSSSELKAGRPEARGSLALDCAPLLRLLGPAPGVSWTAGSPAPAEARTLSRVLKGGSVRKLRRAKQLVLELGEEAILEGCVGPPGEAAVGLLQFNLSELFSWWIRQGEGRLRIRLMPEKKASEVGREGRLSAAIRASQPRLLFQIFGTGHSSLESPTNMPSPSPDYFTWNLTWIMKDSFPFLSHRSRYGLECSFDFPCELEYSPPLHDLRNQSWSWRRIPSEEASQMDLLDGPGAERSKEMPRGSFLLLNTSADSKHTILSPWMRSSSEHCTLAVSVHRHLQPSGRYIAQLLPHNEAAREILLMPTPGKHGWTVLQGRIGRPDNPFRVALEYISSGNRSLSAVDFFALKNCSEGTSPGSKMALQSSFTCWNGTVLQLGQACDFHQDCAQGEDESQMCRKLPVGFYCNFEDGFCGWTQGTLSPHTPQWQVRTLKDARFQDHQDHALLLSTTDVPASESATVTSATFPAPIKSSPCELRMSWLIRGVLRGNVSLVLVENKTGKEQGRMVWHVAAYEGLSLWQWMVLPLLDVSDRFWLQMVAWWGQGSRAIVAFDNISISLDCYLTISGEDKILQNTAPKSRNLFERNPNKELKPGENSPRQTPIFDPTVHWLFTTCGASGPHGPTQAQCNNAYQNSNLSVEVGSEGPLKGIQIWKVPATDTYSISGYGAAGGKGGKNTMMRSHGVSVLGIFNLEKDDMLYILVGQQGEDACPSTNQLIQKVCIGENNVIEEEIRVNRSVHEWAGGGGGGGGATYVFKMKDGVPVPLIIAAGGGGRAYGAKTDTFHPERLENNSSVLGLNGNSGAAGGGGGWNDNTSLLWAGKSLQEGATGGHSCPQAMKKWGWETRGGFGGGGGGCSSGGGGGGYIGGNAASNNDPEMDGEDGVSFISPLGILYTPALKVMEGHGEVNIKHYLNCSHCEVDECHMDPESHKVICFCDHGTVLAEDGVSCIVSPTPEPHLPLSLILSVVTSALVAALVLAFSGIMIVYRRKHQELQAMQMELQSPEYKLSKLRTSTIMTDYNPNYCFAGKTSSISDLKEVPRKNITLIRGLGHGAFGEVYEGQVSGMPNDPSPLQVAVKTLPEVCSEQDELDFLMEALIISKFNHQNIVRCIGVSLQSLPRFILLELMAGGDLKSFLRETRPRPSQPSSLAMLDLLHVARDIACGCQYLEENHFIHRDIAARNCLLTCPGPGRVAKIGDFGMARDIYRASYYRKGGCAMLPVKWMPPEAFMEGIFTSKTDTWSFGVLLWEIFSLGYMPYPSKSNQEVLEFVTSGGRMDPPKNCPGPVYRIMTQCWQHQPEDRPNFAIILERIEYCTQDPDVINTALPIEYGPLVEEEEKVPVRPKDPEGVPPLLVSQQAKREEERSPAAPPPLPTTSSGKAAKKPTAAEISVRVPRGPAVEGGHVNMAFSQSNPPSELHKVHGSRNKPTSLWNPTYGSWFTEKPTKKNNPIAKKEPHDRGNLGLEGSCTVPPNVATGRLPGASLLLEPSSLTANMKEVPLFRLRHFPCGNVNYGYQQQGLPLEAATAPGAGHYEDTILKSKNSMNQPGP
# ALK tyrosine kinase receptor (Homo sapiens, UniProt Q9UM73, L1196M), sequence (Q9UM73 19-1620 L1196M limits assumed): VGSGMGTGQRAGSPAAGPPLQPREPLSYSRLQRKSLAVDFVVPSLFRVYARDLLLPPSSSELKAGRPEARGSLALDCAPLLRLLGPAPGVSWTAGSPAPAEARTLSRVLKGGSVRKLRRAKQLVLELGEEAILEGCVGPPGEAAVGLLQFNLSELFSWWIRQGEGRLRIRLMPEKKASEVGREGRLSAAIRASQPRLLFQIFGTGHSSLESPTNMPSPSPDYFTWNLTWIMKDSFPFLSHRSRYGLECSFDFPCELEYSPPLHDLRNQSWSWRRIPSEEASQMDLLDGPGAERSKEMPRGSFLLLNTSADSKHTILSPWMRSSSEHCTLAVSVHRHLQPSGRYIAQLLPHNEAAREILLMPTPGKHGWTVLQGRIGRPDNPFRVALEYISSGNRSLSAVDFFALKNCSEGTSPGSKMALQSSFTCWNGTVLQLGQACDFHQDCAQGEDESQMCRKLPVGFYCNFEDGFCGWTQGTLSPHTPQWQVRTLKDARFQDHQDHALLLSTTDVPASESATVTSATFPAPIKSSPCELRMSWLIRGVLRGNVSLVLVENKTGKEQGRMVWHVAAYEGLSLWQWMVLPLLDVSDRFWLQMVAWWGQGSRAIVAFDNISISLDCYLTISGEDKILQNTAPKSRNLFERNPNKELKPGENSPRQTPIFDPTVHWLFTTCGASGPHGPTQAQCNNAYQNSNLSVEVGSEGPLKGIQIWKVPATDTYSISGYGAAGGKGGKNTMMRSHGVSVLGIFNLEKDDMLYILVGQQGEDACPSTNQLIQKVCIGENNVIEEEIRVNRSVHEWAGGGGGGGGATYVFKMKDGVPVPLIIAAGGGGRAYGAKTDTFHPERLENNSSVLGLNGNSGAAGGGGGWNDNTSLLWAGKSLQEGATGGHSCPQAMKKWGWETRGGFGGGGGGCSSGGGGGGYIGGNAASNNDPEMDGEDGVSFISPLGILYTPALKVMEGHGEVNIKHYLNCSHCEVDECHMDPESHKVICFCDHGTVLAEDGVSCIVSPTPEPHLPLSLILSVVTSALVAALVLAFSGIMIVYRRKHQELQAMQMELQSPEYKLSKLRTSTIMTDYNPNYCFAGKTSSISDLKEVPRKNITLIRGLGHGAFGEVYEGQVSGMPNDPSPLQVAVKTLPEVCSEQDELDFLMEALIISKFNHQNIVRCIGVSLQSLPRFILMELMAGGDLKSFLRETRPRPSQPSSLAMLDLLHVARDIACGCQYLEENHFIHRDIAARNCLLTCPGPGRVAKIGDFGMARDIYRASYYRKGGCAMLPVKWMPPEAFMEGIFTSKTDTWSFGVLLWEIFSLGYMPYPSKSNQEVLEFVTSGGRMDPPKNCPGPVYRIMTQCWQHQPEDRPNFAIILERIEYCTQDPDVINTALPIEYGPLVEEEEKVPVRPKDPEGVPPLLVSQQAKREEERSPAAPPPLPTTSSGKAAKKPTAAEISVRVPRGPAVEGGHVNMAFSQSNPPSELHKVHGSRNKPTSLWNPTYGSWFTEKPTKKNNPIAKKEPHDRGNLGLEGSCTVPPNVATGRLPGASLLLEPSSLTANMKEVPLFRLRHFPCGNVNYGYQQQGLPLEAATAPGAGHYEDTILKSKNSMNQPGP
Compound,pIC50 (NCI-H2228),pIC50 [3],further results
Cc1cc(Nc2ncc(Cl)c(Nc3cn(C)nc3S(=O)(=O)C(C)C)n2)c(OC2CC2)cc1C1CCN(C)CC1,–,–,clearance [4]: 22.7 mL/min/kg
Cc1cc(Nc2ncc(Cl)c(Nc3cn(C)nc3S(=O)(=O)C(C)C)n2)c(OCC2CC2)cc1C1CCN(C)CC1,6.65,7.13,–
Cc1cc(Nc2ncc(Cl)c(Nc3cn(C)nc3S(=O)(=O)C(C)C)n2)c(OC(F)(F)F)cc1C1CCN(C)CC1,6.43,7.70,–
Cc1cc(Nc2ncc(Cl)c(Nc3cn(C)nc3S(=O)(=O)C(C)C)n2)c(C(F)(F)F)cc1C1CCN(C)CC1,5.97,7.13,–
CC(C)S(=O)(=O)c1nn(C)cc1Nc1nc(Nc2ccc(C3CCN(C)CC3)cc2OC2CC2)ncc1Cl,7.44,8.15,clearance [4]: 79.8 mL/min/kg
CC(C)S(=O)(=O)c1nn(C)cc1Nc1nc(Nc2cc(Cl)c(C3CCN(C)CC3)cc2OC2CC2)ncc1Cl,6.99,7.82,–
CC(C)S(=O)(=O)c1nn(C)cc1Nc1nc(Nc2cc(C#N)c(C3CCN(C)CC3)cc2OC2CC2)ncc1Cl,6.78,7.00,–
Cc1cc(Nc2ncc(Cl)c(Nc3cn(C)nc3S(=O)(=O)C(C)C)n2)c(OC2CC2)cc1C1CCN(C(=O)C(C)C)CC1,6.83,–,pIC50 [1]: 7.59; pIC50 [2]: 7.54
CCNC(=O)N1CCC(c2cc(OC3CC3)c(Nc3ncc(Cl)c(Nc4cn(C)nc4S(=O)(=O)C(C)C)n3)cc2C)CC1,7.09,7.70,pIC50 [1]: 8.40; pIC50 [2]: 8.22
Cc1cc(Nc2ncc(Cl)c(Nc3cn(C)nc3S(=O)(=O)C(C)C)n2)c(OC2CC2)cc1C1CCCN(C)C1 (stereo not drawn),7.49,8.52,pIC50 [1]: 8.52; pIC50 [2]: 8.15
CS(=O)(=O)O.Cc1cc(Nc2ncc(Cl)c(Nc3cn(C)nc3S(=O)(=O)C(C)C)n2)c(OC(C)C)cc1C1CCN(C)CC1,–,–,Activity (Mus musculus): Non-toxic; half-life [5]: 5.1 h; AUC(0-inf) [6]: 988 ng·h/mL; Vd [7]: 7.5 L/kg; clearance [8]: 16.9 mL/min/kg; Cmax [9]: 199 ng/mL; Tmax [10]: 6.7 h; AUC(0-inf) [11]: 3120 ng·h/mL; bioavailability [12]: 63.2%; half-life [13]: 4.9 h; AUC(0-inf) [14]: 637 ng·h/mL; Vd [15]: 11 L/kg; clearance [16]: 26.2 mL/min/kg; Cmax [17]: 85.8 ng/mL; Tmax [18]: 2 h; AUC(0-inf) [19]: 952 ng·h/mL; bioavailability [20]: 49.2%

# Now from value to compound, other results behind:
pIC50 (NCI-H2228),Compound,pIC50 [3],further results
6.65,Cc1cc(Nc2ncc(Cl)c(Nc3cn(C)nc3S(=O)(=O)C(C)C)n2)c(OC(C)C)cc1C1CCNCC1,7.77,pIC50 [1]: 8.10; pIC50 [2]: 7.70
6.91,Cc1cc(Nc2ncc(Cl)c(Nc3cn(C)nc3S(=O)(=O)C(C)C)n2)c(OC2CC2)cc1C1CCNCC1,8.05,–
6.58,Cc1cc(Nc2ncc(Cl)c(Nc3cn(C)nc3S(=O)(=O)C(C)C)n2)c(OCC2CC2)cc1C1CCNCC1,7.37,–
6.39,Cc1cc(Nc2ncc(Cl)c(Nc3cn(C)nc3S(=O)(=O)C(C)C)n2)c(OC(CF)CF)cc1C1CCN(C)CC1,7.21,–
6.18,Cc1cc(Nc2ncc(Cl)c(Nc3cn(C)nc3S(=O)(=O)C(C)C)n2)c(C(C)C)cc1C1CCN(C)CC1,–,–
6.54,Cc1cc(Nc2ncc(Cl)c(Nc3cn(C)nc3S(=O)(=O)C(C)C)n2)c(OC(C)C)cc1C1CNC1,7.22,–
6.57,Cc1cc(Nc2ncc(Cl)c(Nc3cn(C)nc3S(=O)(=O)C(C)C)n2)c(OC(C)C)cc1C1CN(C)C1,7.77,pIC50 [1]: 8.70; pIC50 [2]: 8.30
6.44,Cc1cc(Nc2ncc(Cl)c(Nc3cn(C)nc3S(=O)(=O)C(C)C)n2)c(OC(C)C)cc1C1CCNC1 (stereo not drawn),7.55,–
6.88,Cc1cc(Nc2ncc(Cl)c(Nc3cn(C)nc3S(=O)(=O)C(C)C)n2)c(OC(C)C)cc1C1CCN(C)C1 (stereo not drawn),7.96,–
